From ChEMBL document CHEMBL5321196, “Fluorescent and theranostic probes for imaging nicotinamide phosphoribosyl transferase (NAMPT)” (Eur J Med Chem, 2023)

Assays:
[1] = target: T1, Nicotinamide phosphoribosyltransferase (Homo sapiens, UniProt P43490); assay: Inhibition of NAMPT in human A2780 cells measured at 24 hrs
[2] = target: T1, Nicotinamide phosphoribosyltransferase; assay: Inhibition of NAMPT in human A2780 cells measured at 6 hrs
[3] = target: T1, Nicotinamide phosphoribosyltransferase; assay: Inhibition of NAMPT in human A2780 cells measured at 48 hrs

T1 sequence (P43490 whole entry): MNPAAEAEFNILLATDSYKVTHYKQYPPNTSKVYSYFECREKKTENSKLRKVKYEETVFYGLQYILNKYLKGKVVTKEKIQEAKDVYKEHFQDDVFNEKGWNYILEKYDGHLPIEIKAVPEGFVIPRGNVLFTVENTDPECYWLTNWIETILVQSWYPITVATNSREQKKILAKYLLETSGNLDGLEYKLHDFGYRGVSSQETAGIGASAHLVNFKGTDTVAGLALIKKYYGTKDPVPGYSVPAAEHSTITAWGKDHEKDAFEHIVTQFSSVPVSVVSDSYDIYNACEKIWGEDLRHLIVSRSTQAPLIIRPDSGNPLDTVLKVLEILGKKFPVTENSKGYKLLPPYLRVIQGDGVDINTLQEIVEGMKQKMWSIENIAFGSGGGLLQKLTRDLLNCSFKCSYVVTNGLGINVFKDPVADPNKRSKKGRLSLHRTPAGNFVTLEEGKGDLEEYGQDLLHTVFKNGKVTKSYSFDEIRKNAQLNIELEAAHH

Compound `O=S(=O)(c1ccc(NC(=S)NCc2cccnc2)cc1)N1CCNCC1` has an IC50 [1] of 7.18 µM, an IC50 [2] of over 10 µM and an IC50 [3] of 4.05 µM.
